This is an account of results in ChEMBL document CHEMBL1149326, “Inhibitors of farnesyltransferase: a rational approach to cancer chemotherapy?” (J Med Chem, 2004).

Test [1] has as its target T1, Protein farnesyltransferase (Homo sapiens, UniProt P49354+P49356). Put plainly: Inhibitory concentration against farnesyltransferase was determined. In kind it is protein-complex assay.
Test [2] deals with T2, Geranylgeranyl transferase type I (Homo sapiens, UniProt P49354+P53609). As to the kind of experiment: Inhibition binding constant Geranylgeranyl transferase type I. The class given is protein-complex assay.
Test [3] relates to Rat1. Put plainly: Inhibition of H-ras-transformed Rat1 cells. To be noted: Rattus norvegicus. In kind it is functional, cell-based.
Test [4] addresses T2, Geranylgeranyl transferase type I. Put plainly: Inhibition binding constant against Geranylgeranyl transferase type I. In kind it is protein-complex assay.
For test [5], the target named is T1, Protein farnesyltransferase. As to the kind of experiment: Inhibition binding constant against Farnesyltransferase. In kind it is protein-complex assay.
The test system of test [6] is NIH3T3. Put plainly: Inhibition of growth of H-ras-transformed 3T3 fibroblasts.
In test [7] the target is T1, Protein farnesyltransferase. Put plainly: Effective concentration required to inhibit HDJ2 farnesylation in PSN-1 cells. In kind it is functional, cell-based.

A word on the IC50: it is the concentration that inhibits the measured activity by half. The Ki is the equilibrium dissociation constant of an inhibitor or competing ligand from its target. The low end stands for tighter binding, the high end for weaker binding. By EC50 is commonly meant the concentration needed to bring the measured effect to its halfway point. The low end stands for an effect from little substance, the high end for a need for much substance.

Consider `CC(=O)N1CCC(=C2c3ccc(Cl)cc3CCc3cccnc32)CC1` [SCH-37370], for which the midpoint of inhibition in test [1], the IC50, lay at 27000 nM.

Take `COC(=O)[C@H](CC(C)C)NC(=O)c1ccc(NC[C@@H](N)CS)cc1-c1cccc2ccccc12`: the IC50 in test [2] amounted to 54 nM. This lies in the double-digit nanomolar range.

In turn, `CC[C@@H](C)[C@@H](CN(CC(=O)N[C@@H](CCSC)C(=O)OC)Cc1cccc2ccccc12)NC(=O)Cc1cncn1Cc1ccc(C#N)cc1` had an IC50 in test [3] of 630 nM.

In the case of `N#Cc1ccc2cc1Oc1ccc3cccc(c3c1)N1CCN(CC1=O)Cc1cncn1C2`, in test [1], the IC50 turned out to be 0.2 nM. This lies in the sub-nanomolar range.

Regarding `CSCC[C@H](NC(=O)c1cc(NC[C@@H]2C[C@H](SC(=O)c3cccnc3)CN2)ccc1CCc1ccc(F)cc1)C(=O)OC(C)C`, the Ki in test [4] was 8 nM; in test [5], below 1 nM. In test [6], this molecule had an IC50 of 49 nM.

`O=C(c1ccccc1OC(F)(F)F)N1CCN(Cc2cnc[nH]2)c2ccc(-c3ccncc3)cc2C1` showed an IC50 in test [1] of 24 nM.

For the molecule `CC[C@@H](C)[C@@H](CO[C@@H](Cc1ccccc1)C(=O)N[C@@H](CCS(C)(=O)=O)C(=O)O)NC[C@@H](N)S`, in test [1], half-maximal inhibition (IC50) required 1.8 nM.

In test [7], `N#Cc1ccc2cc1Oc1ccc3c(c1)[C@@H](CCC3)N1CC[C@@H](NCc3cncn3C2)C1=O` yielded a half-maximal effective concentration (EC50) of 0.18 nM. For the same molecule, the IC50 in test [1] is below 1 nM.
